Paper PMC4521150, “Discovery of Novel Inhibitors and Fluorescent Probe Targeting NAMPT” (Scientific Reports, 2015)
Like-named read-outs stand apart in the source and are kept apart here.

Experiments:
HepG2 cells [1] = experiment: Live cell fluorescence imaging of compounds in HepG2 cells; format: cell-based, human; settings: 3 μM, 30 minutes incubation, washed
Procedure: NAMPT knockdown in HepG2 cells was performed by transfection of NAMPT siRNA synthesized by Shanghai GenePharma Co., Ltd (Shanghai, China). The siRNA sequence targeting NAMPT corresponded to coding regions (5′-[…]-3′, 5′-[…]-3′) of the NAMPT gene. The nonspecific siRNA oligonucleotides (synthesized by Shanghai GenePharma Co., Ltd, Shanghai, China) were used as negative controls. 10 nM of NAMPT siRNA or nonspecific siRNA were transfected into HepG2 cells with Lipofectamine RNAiMax reagent (Invitrogen, CA, USA) according to the manufacturer’s instructions. After 24 or 48 hours, transfected cells were subjected to subsequent analysis.
For imaging experiment, HepG2 cells or primary hepatocytes were seeded into 35-mm glass bottom dishes (In Vitro Scientific). The following day, compounds were added to the medium at a final concentration of 3 μM. After 30 minutes, cells were rinsed twice with PBS (pH 7.5), then incubated in fresh culture medium and imaged on a fluorescence microscope (IX-71, Olympus) with a digital camera (Olympus). After 4 hours, these cells were imaged once again. Digital images were recorded and analyzed using ImageJ.

[2] = tested on: primary mouse hepatocytes; experiment: Cell viability of primary hepatocytes from normal mice; format: cell-based; settings: 30 μM
Procedure: (§1) Cell viability was determined by our previous method[27] using the Cell Counting Kit-8 (CCK-8, Dojindo, Japan). In human hepatocellular carcinoma cell line HepG2, cells were seeded in 96-well plate and starved for over 12 h with serum-free DMEM at 60~70% confluency, then treated with compounds or vehicle for 48 h. To determine the IC50 values of inhibitors, compounds with various concentrations were added into the 96-well plate. 10 μl CCK-8 solution was added to the culture medium and incubated at 37 °C for 1 h. The absorbance at 450 nm (A450) was detected by a plate reader. Each experiment was carried out in triplicate in three replicate wells. The IC50 values were determined by non-linear fitting of the concentration-dependent curves with the four-parameter IC50 logistic equation.
Hepatocytes were isolated from mouse liver by the two-step collagenase perfusion method. […] For imaging experiment, 1 × 10^5 cells were plated in a 35-mm glass bottom dishes or 5 × 10^4 were plated in 48-well plate for cell viability assay in DMEM supplemented with 10% FBS and antibiotics, and kept under an atmosphere of 95% air and 5% CO2 at 37 °C.

HepG2 NAD levels = experiment: Cellular NAD measurement (enzymatic cycling assay) in HepG2 cells; format: cell-based, human
Procedure: Cellular level of NAD was measured by spectrophotometric enzymatic cycling assay, as described previously. Briefly, cells were seeded in 96-well plate and starved for over 12 h with serum-free DMEM at 60~70% confluency, following by treatment with compounds or vehicle for 24 h. Cells were lysed with 50 μl of 1M HClO4 on ice for 30 min. The lysates were cleared by centrifuging at 4 °C at 18,000 × g for 5 min, and cleared lysates (40 μl) were neutralized by adding 1M K2CO3 (16 μl) and incubation on ice for 20 min. After centrifuging for 10 min, 10 μl of supernatant were mixed with reaction buffer [50 mM Tris-HCl (pH 7.5), 3% ethanol, 1.66 mM PES (phenazineethosulfate), 0.42 mM MTT (3-(4,5-dimethylthiazolyl-2)-2,5-diphenyltetrazolium bromide), 90 μg/ml ADH] in a total volume of 100 ul, and incubated at 37 °C for 40 min. The absorbance at 570 nm was determined. A blank measurement without ADH was also carried out. Each experiment was carried out in triplicate in three replicate wells

Huh-7 cell = experiment: Cell viability in Huh-7 cells; format: cell-based, human; settings: Huh-7, Figure S2
Text: However, IC50 values for other 5 fluorescent compounds were able to be determined (Supplemental dataset S2). We then measured the fluorescence of all 9 fluorescent compounds at a series of different concentrations.

HepG2 cells [3] = experiment: Cell viability assay (CCK-8) in HepG2 cells; format: cell-based, human; settings: for IC50: HepG2, 48 h, CCK-8, read-out: IC50 for inhibitory effect on HepG2 cell viability
Procedure: as §1

SMILES: Cc1nc2ccccc2n(Cc2ccc(C(=O)NCc3cccnc3)cc2)c1=O [F671-0003]
- Cellular fluorescence in living HepG2 cells (HepG2 cells [1]): did not show any fluorescence
- Inhibition of normal hepatocytes viability [2]: ~ 20%
- Decrease of cellular NAD level (HepG2 NAD levels; HepG2, 1 μM, 24 hours): ~ 80%
- IC50 (HepG2 NAD levels; Homo sapiens, HepG2, 24 hours treatment, read-out: IC50 for reducing NAD level): 0.00671 µM
- Effect on Huh-7 cell viability (Huh-7 cell): Inhibitory effects
- Effect on HepG2 cell viability at 2 μM (HepG2 cells [3]; 2 μM, 48 hours of incubation): significant inhibition on cell viability
- Inhibition on cell viability (HepG2 cells [3]; HepG2, 2 μM, 48 h): 50%
- Rescue of cell viability by exogenous NMN (HepG2 cells [3]; HepG2, 3 μM compound, NMN at 300 μM): totally rescued
- IC50 (HepG2 cells [3]): 1.69 ± 0.15 µM
- IC50 (HepG2 cells [3]; Homo sapiens): ~2 µM
